Measured values published in patent US5948436A, “Pharmaceutical composition” (Abbott Laboratories, priority 1995, dated 1999).

What was measured:
[1] = Oral bioavailability studies in dogs (AUC after oral vs. intravenous dose); parameters: species or system dog (beagle dogs, mixed sexes); settings: dog, in vivo, 5 mg/kg
Description: Each dog received a single solid dosage form corresponding to a 5 mg/kg dose of the drug.

[2] = test system: HIV-2 protease; experiment: Inhibition of HIV-2 protease; type: biochemical
[3] = target: HIV-1 protease (HIV-1 M:B_HXB2R, UniProt P04585); type: biochemical

Compound | bioavailability [1] | inhibition of HIV-2 protease [2] | inhibition of HIV-1 protease [3]
CC(C)c1nc(CN(C)C(=O)N[C@H](C(=O)N[C@@H](Cc2ccccc2)C[C@H](O)[C@H](Cc2ccccc2)NC(=O)OCc2cncs2)C(C)C)cs1 [compound III, (2S,3S,5S)-5-(N-(N-((N-Methyl-N-((2-isopropyl-4-thiazolyl)methyl)-amino)carbonyl)valinyl)amino)-2-(N-((5-thiazolyl)methoxycarbonyl)amino)-1,6-diphenyl-3-hydroxyhexane] | < 2% | – | –
CC(C)c1nc(CN(C)C(=O)NC(C(=O)NC(Cc2ccccc2)CC(O)C(Cc2ccccc2)NC(=O)OCc2cncs2)C(C)C)cs1 (stereo not drawn) [formula II] | – | especially effective | especially effective
